Laboratory results reported in PMC7076710, “Synthesis, Identification, and Structure–Activity Relationship Analysis of GATA4 and NKX2-5 Protein–Protein Interaction Modulators” (Journal of Medicinal Chemistry, 2019).
Read-outs that look alike come from different tables or passages of the source. Blank lines part the entries; values can stand above or below the compound they belong to.

Target: T1, NKX2-5 transcriptional activity (Mus musculus, UniProt P42582)
T1 construct: expressed in transfected cells; host or cells: COS-1
T1 sequence (P42582 whole entry): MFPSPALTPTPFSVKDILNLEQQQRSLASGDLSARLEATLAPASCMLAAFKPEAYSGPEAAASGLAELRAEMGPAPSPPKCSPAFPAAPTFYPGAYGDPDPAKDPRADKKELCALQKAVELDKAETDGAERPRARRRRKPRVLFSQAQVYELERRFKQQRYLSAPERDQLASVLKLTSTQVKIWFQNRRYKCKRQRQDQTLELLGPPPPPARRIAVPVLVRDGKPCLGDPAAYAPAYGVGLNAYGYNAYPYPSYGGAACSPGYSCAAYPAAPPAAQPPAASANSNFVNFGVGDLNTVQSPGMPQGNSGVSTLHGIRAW
Experiment: NKX2-5 luciferase reporter assay (3xNKE reporter, COS-1 cells)
Assay type: cell-based
Settings: for activity at 3 µM: COS-1, read-out: NKX.3µM

[1] = 3 µM, luciferase reporter activity, % of control
[2] = 3 µM, luciferase reporter activity relative to control

Compound: CCN(CC)c1ccc(NC(=O)c2c(-c3ccccc3)noc2C)cc1 [Compound 1, N-[4-(Diethylamino)phenyl]-5-methyl-3-phenylisoxazole-4-carboxamide]
activity at 3 µM [1]: 76%

Compound: Cc1onc(-c2ccccc2)c1C(=O)N(C1=NC(C)CS1)c1ccc(Cl)cc1 (stereo not drawn) [Compound 2]
activity at 3 µM [1]: 102%

Compound: CCN(CC)c1ccc(NC(=O)c2cnsc2)cc1 [Compound 47s]
activity at 3 µM [2]: 41.8%

Compound: N-[4-(Diethylamino)phenyl]-3-methyl-5-(4-methyl-1,2,3-thiadiazol-5-yl)isoxazole-4-carboxamide [Compound 47c]
NKX.3µM [2]: 33.64
NKX2-5 (% of control) Mean ± SD (10 μM, COS-1 cells, 24 h): 21 ± 0.88 % of control
NKX.10µM (10 µM, luciferase reporter activity relative to control): 20.92

The remaining lines, values ahead:

activity at 3 µM [2]: 39.5%
Compound: Cc1onc(-c2ccccc2)c1COc1ccc(C(=O)OCCC#N)cc1 [Compound 35a, 2-Cyanoethyl 4-[(5-Methyl-3-phenylisoxazol-4-yl)methoxy]benzoate]

activity at 3 µM [2]: 73.7%
Compound: CCC(=O)N(Cc1ccc(N(CC)CC)cc1)c1c(-c2ccccc2)noc1C [Compound 58]

activity at 3 µM [2]: 74.8%
Compound: COc1ccc(-c2cc(NC(=O)c3ccc(C(C)(C)C)cc3)n[nH]2)cc1 [Compound 72]
